Data published in US3963707A, “Novel N-nitroso compounds, compositions containing such compounds, processes for their preparation and methods of treatment therewith, and novel intermediates” (Aktiebolaget Leo, priority 1973, dated 1976).
Read-outs that look alike come from different tables or passages of the source.

Assays:
utering weight = assay: Estrogenic effect in immature female mice; assay type: in vivo; details: for estrogenic activity, 17β-estradiol and its 3-acetate compared with each other: same kind of experiment
Method: (§1) The androgenic and estrogenic activities, as described below, are determined with established methods (see e.g. Dorfman, R.: Methods in Hormone Research, vol. II, Acad. Press, New York and London 1962, pp. 93 and 275).
The estrogenic effect is assayed in immature female mice. The animals receive the compounds once daily for three consecutive days, and on the 4th day the utering weight is determined.

Hepatoma AH 130 = assay: in vivo; design: species or system SPF Wistar rats; details: for anti-tumor activity: additional compounds, result in words; for ED50: Rattus norvegicus, ip, 192 h, one injection i.p. day after implantation, dose causing 50 percent reduction of tumour size; for T.I. (LD50/ED50): Hepatoma AH 130, rats, i.p.
Summary of the method: (§2)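 SPF Wistar rats were implanted i.p. with 5 × 10^6 AH 130 cells and given one i.p. dose the next day. On day 8 they were killed and tumour weights were compared with controls. ED50 is the dose halving tumour size, LD50 the 50% lethal dose, and T.I. is LD50/ED50.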

[1] = tested on: Ehrlich ascites tumour, ELD hyperdiploid (46 chromosomes); assay: Ehrlich ascites tumour test (LD50, ED50, therapeutic index); assay type: in vivo, SPF NMRI mice; details: for anti-tumor activity: additional compounds, result in words; for T.I. (LD50/ED50): Ehrlich ascites, mice, i.p.; for ED50: Mus musculus, Ehrlich, ip
Summary of the method: (§3)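 SPF NMRI mice implanted i.p. with 2 × 10^6 Ehrlich ascites (ELD hyperdiploid) cells and given a single i.p. dose the next day; killed on day 8. ED50 = dose halving tumour weight versus controls, LD50 = dose lethal to 50%; T.I. = LD50/ED50.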

[2] = Progestational activity in the Clanberg test; assay type: in vivo; details: standard scale of McPhail
[3] = tested on: lymphoid leukemia (L 1210); details: result in words; cited from earlier work
Walker 256 = details: result in words; cited from earlier work
[4] = acute intraperitoneal toxicity in mice; cited from earlier work
ventral prostate [5] = details: as reported in the literature; cited from earlier work
[6] = Ehrlich ascites tumour test (LD50, ED50, therapeutic index); assay type: in vivo, SPF NMRI mice; details: mouse, in vivo, ip; one injection i.p., mice; dose causing 50 percent lethality
Summary of the method: as §3

[7] = tested on: Lymphatic leukemia L 1210; assay: Lymphatic leukemia L 1210 test; assay type: in vivo, CDF1 (C3H×DBA/2)F1 mice; details: for effect on L 1210: result in words, dose not given; for Effect %: survival time as percentage of control; for Weight change v: vs control up to the 5th day
From the text: (§4) The experimental design and the interpretation of the results have been in accordance with the standards set by the CCNSC (Cancer Chemotherapy Reports, January 1959 and December 1962), and by the DR&D (Cancer Chemotherapy Reports, September 1972, Vol. 3, No. 2).
(§5) The way of administration is by the intraperitoneal route (i.p.) in each case.
Lymphatic leukemia L 1210
Experimental animals: CDF1 (C3H×DBA/2)F1 mice.
Tumour implant: 10^5 tumour cells i.p.
Therapy: One injection i.p. on the day following implantation.
Evaluation: a) The survival time of the test animals (t) expressed as the percentage of that of control animals (c).
b. Weight change in the test animals (T) compared with that of the control animals (c) up to the 5th day.
c. The mortality rate must not exceed 35% in the test animals on the 5th day of therapy.

[8] = Thymolytic effect according to A. C. Hilger (assay 8); details: in vivo
From the text: Thymolytic effect according to A. C.

in vivo = assay: in vivo; design: species or system SPF Wistar rats; details: rat, in vivo, ip; one injection i.p., rats; dose causing 50 percent lethality
Summary of the method: as §2

[9] = tested on: Walker carcinosarcoma 256; assay: Walker carcinosarcoma 256 test; assay type: in vivo, Sprague Dawley rats; details: 5×250 mg/kg i.p.; for Lethality: died/used animals
From the text: as §4, §5
Walker carcinosarcoma 256
Experimental animals: Sprague Dawley rats.
Tumour implant: Tumour pieces with 2-4 mm diameter, subcutaneously.
Therapy: Daily injections i.p. for 5 days starting on the day following implantation.
Termination: The animals are killed on the 9th day.
Evaluation: Weights of tumours of test animals are compared with those of control animals. The differences, in per cent of weights of tumours of control animals, give per cent tumour inhibition.
The lethality is given as the number of animals which died in the experiment/the number of animals used in the experiments.

ventral prostate [10] = assay: Androgenic effect in castrated male rats; assay type: in vivo; details: subcutanous and intraperitoneal administration, 7 days
Method: as §1
The androgenic effect is assayed in castrated male rats. Beginning two weeks after castration the animals are given one daily injection of the compound for 7 days. The weight of the ventral prostate is determined on the 8th day.

Sarcoma 180 = details: result in words; cited from earlier work
Adenocarcinoma 755 = details: result in words; cited from earlier work
[11] = one injection i.p. day after implantation, dose causing 50 percent reduction of tumour size, read-out: ED50

SMILES: C[C@]12CC[C@@H]3c4ccc(O)cc4CC[C@H]3[C@@H]1CC[C@@H]2O [17β-estradiol, estra-1,3,5(10)-triene-3,17β-diol]
- estrogenic activity, 17β-estradiol and its 3-acetate compared with each other (utering weight): about the same estrogenic activity

SMILES: C#C[C@]1(OC(C)=O)CC[C@H]2[C@@H]3CCC4=C[C@@H](OC(=O)N(CCCl)N=O)CC[C@@H]4[C@H]3CC[C@@]21C [ethynodiol-17β-acetate-3β-N-(2-chloroethyl)-N-nitroso carbamate]
- anti-tumor activity (Hepatoma AH 130): exhibit anti-tumor activity
- anti-tumor activity [1]: exhibit anti-tumor activity
- progestational activity compared with ethynodiol-3,17-diacetate [2]: about half that of ethynodiol-3,17 -diacetate

SMILES: CC(C)COC(=O)N(CCCl)N=O [(CH3)2 CHCH2 --]
- activity against lymphoid leukemia (L 1210) [3]: inactive
- activity against Walker 256 (Walker 256): inactive
- LD50 [4]: 7 mg/kg

SMILES: C[C@]12CC[C@H](O)CC1=CC[C@@H]1[C@@H]2CC[C@]2(C)C(=O)CC[C@@H]12 [dehydroepiandrosterone, androst-5-en-3β-ol-17-one]
- androgenic effect compared with testosterone (ventral prostate [5]): weaker androgenic effect

SMILES: CS(=O)(=O)OCCCCOS(C)(=O)=O [Busulfan, reference compound]
- LD50 [6]: 71 mg/kg
- T.I. (LD50/ED50) [1]: 1.3
- ED50 [1, 11]: 55 mg/kg

SMILES: C[C@]12C=CC(=O)C=C1CC[C@@H]1[C@@H]2[C@@H](O)C[C@@]2(C)[C@H]1CC[C@]2(O)C(=O)COC(=O)N(CCCl)N=O [prednisolone-21-N-(2-chloroethyl)-N-nitroso carbamate]
- anti-tumor activity (Hepatoma AH 130): exhibit anti-tumor activity
- anti-tumor activity [1]: exhibit anti-tumor activity
- effect on L 1210 [7]: show a significant effect
- thymolytic activity compared with prednisolone acetate [8]: about the same activity as prednisolone acetate

SMILES: C[C@]12CC[C@H](OC(=O)N(CCCl)N=O)CC1=CC[C@@H]1[C@@H]2CC[C@]2(C)C(=O)CC[C@@H]12 [dehydroepiandrosterone-3β-N-(2-chloroethyl)-N-nitroso carbamate]
- LD50 (in vivo): > 1000 mg/kg
- ED50 (Hepatoma AH 130): 0.4 mg/kg
- Tumour inhibition % [9]: 66%
- Lethality [9]: 0/16
- LD50 [6]: > 1000 mg/kg
- T.I. (LD50/ED50) [1]: > 102
- ED50 [1, 11]: 98 mg/kg
- Mortality ([7]; 1×500 mg/kg i.p.): 0/40
- Effect % ([7]; 1×500 mg/kg i.p.): 143%
- Weight change v ([7]; 1×500 mg/kg i.p.): -2.5 g
- androgenic effect compared with testosterone (ventral prostate [10]): somewhat weaker androgenic effect

SMILES: C1CN1c1nc(N2CC2)nc(N2CC2)n1 [Triethylene-melamine, reference compound]
- LD50 [6]: 2.7 mg/kg
- T.I. (LD50/ED50) [1]: 2.6
- ED50 [1, 11]: 1.03 mg/kg

SMILES: C[C@]12C=CC(=O)C=C1CC[C@@H]1[C@@H]2[C@@H](O)C[C@@]2(C)[C@H]1CC[C@]2(O)C(=O)COC(=O)N(CCCl)C(=O)N(CCCl)N=O [prednisolone-21-/N^2,N^4-bis (2-chloroethyl)-N^4-nitroso allophanate/]
- anti-tumor activity (Hepatoma AH 130): exhibit anti-tumor activity
- anti-tumor activity [1]: exhibit anti-tumor activity
- effect on L 1210 [7]: show a significant effect
- thymolytic activity compared with prednisolone acetate [8]: about the same activity as prednisolone acetate

SMILES: O=C(O)CCCc1ccc(N(CCCl)CCCl)cc1 [Chlorambucil, reference compound]
- LD50 [6]: 33 mg/kg

SMILES: CC(=O)Oc1ccc2c(c1)CC[C@@H]1[C@@H]2CC[C@]2(C)[C@@H](O)CC[C@@H]12 [17β-estradiol-3-acetate]
- estrogenic activity, 17β-estradiol and its 3-acetate compared with each other (utering weight): about the same estrogenic activity

SMILES: CCCCOC(=O)N(CCCl)N=O [CH3 (CH2)2 CH2 --]
- LD50 [4]: 11 to 15 mg/kg

SMILES: S=P(N1CC1)(N1CC1)N1CC1 [Triethylene-thiophosphoramide, reference compound]
- LD50 [6]: 22 mg/kg
- T.I. (LD50/ED50) [1]: 1.5
- ED50 [1, 11]: 15 mg/kg

SMILES: CC(=O)Oc1ccc2c(c1)CC[C@@H]1[C@@H]2CC[C@]2(C)[C@@H](OC(=O)N(CCCl)N=O)CC[C@@H]12 [estradiol-3-acetate-17β-N-(2-chloroethyl)-N-nitroso carbamate]
- LD50 (in vivo): > 1000 mg/kg
- T.I. (LD50/ED50) (Hepatoma AH 130): > 10
- ED50 (Hepatoma AH 130): 96 mg/kg
- Tumour inhibition % [9]: 74%
- Lethality [9]: 1/8
- anti-tumor activity [1]: exhibit anti-tumor activity
- estrogenic effect compared with 17β-estradiol and 17β-estradiol-3-acetate (utering weight; given orally, subcutanously or intraperitoneally): about 10 times weaker

SMILES: CCOC(=O)N(CCCl)N=O [C2 H5 --]
- activity against lymphoid leukemia (L 1210) [3]: inactive
- activity against Sarcoma 180 (Sarcoma 180): inactive
- activity against Adenocarcinoma 755 (Adenocarcinoma 755): inactive
- LD50 [4]: 2 mg/kg

SMILES: C[C@]12CC[C@@H](OC(=O)N(CCCl)N=O)C[C@@H]1CC[C@@H]1[C@@H]2CC[C@]2(C)C(=O)CC[C@@H]12 [androsterone-3α-N-(2-chloroethyl)-N-nitroso carbamate]
- LD50 (in vivo): > 1000 mg/kg
- T.I. (LD50/ED50) (Hepatoma AH 130): > 100
- ED50 (Hepatoma AH 130): 10 mg/kg
- Tumour inhibition % [9]: 82%
- Lethality [9]: 0/8
- anti-tumor activity [1]: exhibit anti-tumor activity
- Mortality ([7]; 1×125 mg/kg i.p.): 0/20
- Effect % ([7]; 1×125 mg/kg i.p.): 153%
- Weight change v ([7]; 1×125 mg/kg i.p.): -2.4 g

SMILES: C[C@]12CC[C@H]3[C@@H](CCC4=CC(=O)CC[C@@]43C)[C@@H]1CC[C@@H]2OC(=O)N(CCCl)N=O [testosterone-17β-N-(2-chloroethyl)-N-nitroso carbamate]
- LD50 (in vivo): > 1000 mg/kg
- T.I. (LD50/ED50) (Hepatoma AH 130): > 100
- ED50 (Hepatoma AH 130): 8 mg/kg
- Tumour inhibition % [9]: 64%
- Lethality [9]: 0/8
- anti-tumor activity [1]: exhibit anti-tumor activity
- Mortality ([7]; 1×125 mg/kg i.p.): 0/40
- Effect % ([7]; 1×125 mg/kg i.p.): 125%
- Weight change v ([7]; 1×125 mg/kg i.p.): -1.8 g
- androgenic effect compared with testosterone (ventral prostate [10]): about the same androgenic effect as testosterone

SMILES: O=NN(CCCl)C(=O)Oc1ccccc1 [Phenyl]
- LD50 [4]: 3 to 7 mg/kg

SMILES: C[C@]12CC[C@@H](OC(=O)N(CCCl)N=O)C[C@@H]1CC[C@@H]1[C@@H]2CC[C@]2(C)[C@@H](OC(=O)N(CCCl)N=O)CC[C@@H]12 [androstanediol-3α,17β-bis/N-(2-chloroethyl)-N-nitroso carbamate/]
- LD50 (in vivo): > 1000 mg/kg
- ED50 (Hepatoma AH 130): 1 mg/kg
- Tumour inhibition % [9]: 75%
- Lethality [9]: 1/8
- anti-tumor activity [1]: exhibit anti-tumor activity
- effect on L 1210 [7]: show a significant effect

SMILES: O=P1(N(CCCl)CCCl)NCCCO1 (centres unmarked) [Cyclofosfamid, reference compound]
- LD50 [6]: 470 mg/kg
- T.I. (LD50/ED50) [1]: 7.6
- ED50 [1]: 62 mg/kg

SMILES: C#C[C@]1(OC(C)=O)CC[C@H]2[C@@H]3CCC4=C[C@@H](OC(=O)N(C(=O)N(CCCl)N=O)C5CCCCC5)CC[C@@H]4[C@H]3CC[C@@]21C [ethynodiol-17β-acetate-3β-/N^2-cyclohexyl-N^4-(2-chloroethyl)-N^4-nitroso allophanate/]
- anti-tumor activity (Hepatoma AH 130): exhibit anti-tumor activity
- anti-tumor activity [1]: exhibit anti-tumor activity
- progestational activity compared with ethynodiol-3,17-diacetate [2]: about half that of ethynodiol-3,17 -diacetate

SMILES: O=NN(CCCl)C(=O)Oc1ccc2ccccc2c1 [β-Naphthyl]
- LD50 [4]: 42 mg/kg
